Experiments:
[1] = test system: Septoria nodorum; experiment: Activity against Septoria nodorum in wheat; type: in vivo; settings: mixture of the labelled component I with component II; wheat 3-leaf stage; 60 ppm of a.i.; assessed 13 days after infection
Protocol: 13 days after the infection, the fungus infestation is assessed.

[2] = test system: Botrytis cinerea; experiment: Activity against Botrytis cinerea on apple fruits (residual-protective action); type: in vivo; settings: mixture of the labelled component I with component II = furalaxyl (II C), metalaxyl (II A) or R-metalaxyl (II B); damaged apples; 0.02% of active ingredient; one week incubation
Protocol: The treated fruits are subsequently inoculated with a spore suspension of the fungus and incubated for one week at high atmospheric humidity and approximately 20° C. The fungicidal activity of the test substance is deduced from the number of the sites of damage where rotting has been observed.

[3] = test system: Erysiphe graminis; experiment: Activity against Erysiphe graminis in barley (residual-protective and systemic action); type: in vivo; settings: mixture of the labelled component I with component II; barley; a) spray 0.02% of active ingredient, b) 0.002% based on soil volume; assessed 12 days after infection
Protocol: The infected plants are placed in a greenhouse at 22°. The fungus infestation is assessed 12 days after the infection. […] 48 hours later, the plants are dusted with conidia of the fungus. The infected plants are placed in a greenhouse at 22°. The fungus infestation is assessed 12 days after the infection.

[4] = test system: Phytophthora; settings: mixture of the labelled component I, in particular in combination with metalaxyl (II A), benalaxyl (II D) or R-metalaxyl (II B); potato (Bintje); a) spray 0.02% of active ingredient, b) 0.002% based on soil volume; 5 days incubation
Protocol: 2-3 week old potato plants (Bintje variety) are grown for 3 weeks and then sprayed with a spray mixture (0.02% of active ingredient) prepared with a wettable powder of the active ingredient. After 24 hours, the treated plants are infected with a sporangia suspension of the fungus. The fungus infestation is assessed after the infected plants have been incubated for 5 days at a relative atmospheric humidity of 90-100% and 20° C.
A spray mixture (0.002% of active ingredient based on the soil volume) prepared with a wettable powder of the active ingredient is poured next to 2-3 week old potato plants (Bintje variety) which have been grown for 3 weeks. […] After 48 hours, the treated plants are infected with a sporangia suspension of the fungus. Fungus infestation is assessed after the infected plants have been incubated for 5 days at a relative atmospheric humidity of 90-100% and 20° C.

[5] = test system: Puccinia recondita; experiment: Activity against Puccinia recondita in wheat (residual-protective and systemic action); type: in vivo; settings: mixture of the labelled component I with component II; wheat; a) spray 0.02% of active ingredient, b) 0.006% based on soil volume; assessed 12 days after infection
[6] = test system: Cercospora arachidicola; experiment: Residual-protective action against Cercospora arachidicola in groundnuts; type: in vivo; settings: mixture of the labelled component I with component II; groundnut plants; 0.02% of active ingredient; assessed 12 days after infection
Protocol: The plants are incubated for 72 hours at 21° and high atmospheric humidity and subsequently placed in a greenhouse until the typical foliar lesions appear. The activity of the active ingredient is assessed 12 days after the infection on the basis of number and size of the foliar lesions.

[7] = test system: Plasmopara viticola; experiment: Activity against Plasmopara viticola in grapevines; settings: mixture of the labelled component I with component II = ofurace (II E), oxadixyl (II F), or in particular metalaxyl (II A) or R-metalaxyl (II B); grapevine seedlings; 0.02% of active ingredient; assessed 6 days after infection
Protocol: Grapevine seedlings at the 4-to-5-leaf stage are sprayed to drip point with an aqueous spray mixture prepared with a wettable powder of the active ingredient mixture (0.02% of active ingredient) and, 24 hours later, infected with a sporangia suspension of the fungus. The fungus infestation is assessed 6 days after infection, during which time a relative atmospheric humidity of 95 to 100% and a temperature of 20° are maintained.

[8] = test system: Phytophthora infestans; type: in vivo; settings: mixture of the labelled component I with component II = oxadixyl (II F), ofurace (II E), or in particular metalaxyl (II A) or R-metalaxyl (II B); tomato cv. Roter Gnom; a) curative 200 ppm, b) preventive-systemic 60 ppm relative to soil volume
[9] = test system: Fusarium nivale; experiment: Activity against Fusarium nivale in rye (seed dressing, field); type: in vivo; settings: mixture of the labelled component I with component II, rye cv. Tetrahell seed dressing, 20 or 6 ppm of a.i. based on seed weight
Protocol: which has been infected naturally with Fusarium nivale is dressed with the test fungicide in a roller mixer, the following concentrations being used: 20 or 6 ppm of a.i. (based on the seed weight). The infected and treated rye is sown in the open in October in plots of 3 m length and 6 seed rows, using a seed drill. 3 replications per concentration. Until the disease level is evaluated, the experimental field is subjected to the field conditions of normal crop management (preferably in a region with unbroken snow cover during the winter months). To assess the phytotoxicity, seedling emergence is scored in autumn and plant density/tillering in spring. To assess the activity of the active ingredient, the percentage of Fusarium-infected plants is evaluated early in the year, immediately after the snows have melted.

CON=C(C(=O)OC)c1ccccc1CON=C(C)c1cccc(OC(F)(F)F)c1 [(32), methyl 2-[α-{[(α-methyl-3-trifluoromethoxybenzyl)imino]oxy}-o-tolyl]glyoxylate O-methyloxime]
activity of active ingredient mixture (fungus infestation) [1]: markedly increased activity | activity of active ingredient mixture (number of sites of damage with rotting) [2]: markedly increased activity | synergistic effect of active ingredient mixture (fungus infestation) [3]: good synergistic effect | synergistic effect of active ingredient mixture (fungus infestation) [4]: good synergistic effect | synergistic effect of active ingredient mixture (fungus infestation) [5]: good synergistic effect | activity of active ingredient mixture (number and size of foliar lesions) [6]: markedly increased activity | synergistic effect of active ingredient mixture (fungus infestation) [7]: marked synergistic effect | synergistic effect of active ingredient mixture (number and size of foliar lesions) [8]: good synergistic effect | synergistic effect of active ingredient mixture (percentage of Fusarium-infected plants) [9]: good synergistic effect

From patent US6441028B2, “Microbicidal compositions” (Bayer Aktiengesellschaft, priority 1995, dated 2002)
